# Target: Coagulation factor XI (Homo sapiens, UniProt P03951)
# Experiment: human FXIa inhibitor potency, dose response, biochemical (AID 679)
# Coagulation factor XI, sequence (P03951 19-387 limits assumed): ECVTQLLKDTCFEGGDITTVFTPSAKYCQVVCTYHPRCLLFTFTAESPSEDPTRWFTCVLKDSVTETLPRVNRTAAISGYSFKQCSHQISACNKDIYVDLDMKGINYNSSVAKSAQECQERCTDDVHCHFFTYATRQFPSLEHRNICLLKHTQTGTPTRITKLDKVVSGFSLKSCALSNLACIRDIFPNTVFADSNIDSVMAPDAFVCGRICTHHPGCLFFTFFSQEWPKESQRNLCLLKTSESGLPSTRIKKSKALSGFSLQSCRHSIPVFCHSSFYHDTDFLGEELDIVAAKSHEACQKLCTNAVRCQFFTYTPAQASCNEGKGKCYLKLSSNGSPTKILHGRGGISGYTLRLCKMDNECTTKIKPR
# Coagulation factor XI, sequence (P03951 388-625 limits assumed): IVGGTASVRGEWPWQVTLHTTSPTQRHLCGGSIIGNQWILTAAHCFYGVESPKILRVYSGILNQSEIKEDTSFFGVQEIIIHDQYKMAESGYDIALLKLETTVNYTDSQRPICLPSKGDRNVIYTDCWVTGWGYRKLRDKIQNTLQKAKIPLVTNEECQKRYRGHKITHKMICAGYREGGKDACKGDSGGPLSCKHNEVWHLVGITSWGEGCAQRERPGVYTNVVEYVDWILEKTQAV
row,Compound,IC50 [nM]
1,"COC(=O)CSc1nnc(C)n1-c1cccc(OC)c1 [[4-(3-Methoxy-phenyl)-5-methyl-4H-[1,2,4]triazol-3-ylsulfanyl]-acetic acid methyl ester]",2360
2,"CCOC(=O)c1cc2c(ccn2C)n1CC(=O)N1CCC(C)CC1 [ethyl 1-methyl-4-[2-(4-methylpiperidin-1-yl)-2-oxoethyl]pyrrolo[3,2-b]pyrrole-5-carboxylate]",744

# Next, values leading:
row,IC50 [nM],Compound
1,> 50000,"CCOC(=O)c1c(C)nc2c(c1C)c(=O)oc1ccccc12 [ethyl 2,4-dimethyl-5-oxochromeno[4,3-b]pyridine-3-carboxylate]"
2,> 50000,"COC(=O)c1ccc(NC(=O)Cc2c(O)n(-c3ccc(C)cc3)c(=O)n2CC(C)C)cc1 [methyl 4-[2-[1-(4-methylphenyl)-3-(2-methylpropyl)-2,5-bis(oxidanylidene)imidazolidin-4-yl]ethanoylamino]benzoate]"
3,> 50000,"COC(=O)c1[nH]c2ccc(Br)cc2c1NC(=O)CN1CCCc2ccccc21 [methyl 5-bromanyl-3-[2-(3,4-dihydro-2H-quinolin-1-yl)ethanoylamino]-1H-indole-2-carboxylate]"

# Source: BindingDB's records for doi:10.7270/Q2W957K6 (Pcmd, 2008)
